What all share (experiment): relative viability (nuclei count vs DMSO), 5 days (fraction); higher = more cells survive
Compound in assay [1]: O=c1ncccn1[C@@H]1O[C@H](CO)[C@@H](O)[C@H]1O [Zebularine] + CCNC(=O)c1noc(-c2cc(C(C)C)c(O)cc2O)c1-c1ccc(CN2CCOCC2)cc1 [Luminespib] (partner 0.01 µM)
In outline:
(§1)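 Each reported value is a median over duplicate plates. It expresses relative viability: treated-well nuclei count divided by vehicle-well nuclei count. Lung cancer cell lines in 1536-well plates were dosed by pin tool a day after seeding, alone with one drug or with a fixed anchor-drug dose plus five library-drug doses (not always all listed) in √10 steps, and nuclei were counted after 5 days.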

Compound in assay [2]: CC(C)CCN1c2nc(Nc3cc(F)c(O)c(F)c3)ncc2N(C)C(=O)C1C [BI-D1870] + Cc1nc(Nc2ncc(C(=O)Nc3c(C)cccc3Cl)s2)cc(N2CCN(CCO)CC2)n1 [Dasatinib] (partner 0.075 µM)
In outline:
as §1

Compound in assay [3]: CC(C)CCN1c2nc(Nc3cc(F)c(O)c(F)c3)ncc2N(C)C(=O)C1C [BI-D1870] + C[C@@H](Oc1cc(-c2cnn(C3CCNCC3)c2)cnc1N)c1c(Cl)ccc(F)c1Cl [Crizotinib] (partner 1 µM)
In outline: as §1

Compound in assay [4]: CC(C)CCN1c2nc(Nc3cc(F)c(O)c(F)c3)ncc2N(C)C(=O)C1C [BI-D1870] + Nc1nc2[nH]cc(CCc3ccc(C(=O)N[C@@H](CCC(=O)O)C(=O)O)cc3)c2c(=O)[nH]1 [Pemetrexed] (partner 0.2 µM)
In outline: as §1

UMC-11: the relative viability in assay [1] (first compound 1 µM) was 1.06; in assay [1] (first compound 3.162 µM), 0.996; in assay [1] (first compound 10 µM), 0.686; in assay [1] (first compound 31.62 µM), 0.62; in assay [1] (first compound 100 µM), 0.316; in assay [2] (first compound 0.04 µM) it was 0.579. Also, the relative viability is 0.454 in assay [2] (first compound 0.1265 µM); 0.481 in assay [2] (first compound 0.4 µM); 0.393 in assay [2] (first compound 1.265 µM); 0.142 in assay [2] (first compound 4 µM); 0.477 in assay [3] (first compound 0.04 µM); 0.585 in assay [3] (first compound 0.1265 µM). Besides, the relative viability is 0.533 in assay [3] (first compound 0.4 µM); 0.694 in assay [3] (first compound 1.265 µM); 0.172 in assay [3] (first compound 4 µM); 0.812 in assay [4] (first compound 0.04 µM); 0.751 in assay [4] (first compound 0.1265 µM); 0.777 in assay [4] (first compound 0.4 µM). For the same cell line, the relative viability in assay [4] (first compound 1.265 µM) was determined as 0.779; in assay [4] (first compound 4 µM), 0.277.
